Structures can show the parent of a compound that is named as a salt.

This assay deals with h12/15-LOX (Homo sapiens (Human), UniProt P16050). Description: 12/15-LOX enzyme inhibition IC50 assay (Examples 1 and 2). The assay is classed as biochemical. Particulars: for Emax: h12/15-LOX, read-out: Max % inhibition. The procedure: Enzyme was then added to the cuvettes. […] The % inhibition for each test compound concentration were calculated as follows: […]
Sequence of h12/15-LOX (P16050 whole entry): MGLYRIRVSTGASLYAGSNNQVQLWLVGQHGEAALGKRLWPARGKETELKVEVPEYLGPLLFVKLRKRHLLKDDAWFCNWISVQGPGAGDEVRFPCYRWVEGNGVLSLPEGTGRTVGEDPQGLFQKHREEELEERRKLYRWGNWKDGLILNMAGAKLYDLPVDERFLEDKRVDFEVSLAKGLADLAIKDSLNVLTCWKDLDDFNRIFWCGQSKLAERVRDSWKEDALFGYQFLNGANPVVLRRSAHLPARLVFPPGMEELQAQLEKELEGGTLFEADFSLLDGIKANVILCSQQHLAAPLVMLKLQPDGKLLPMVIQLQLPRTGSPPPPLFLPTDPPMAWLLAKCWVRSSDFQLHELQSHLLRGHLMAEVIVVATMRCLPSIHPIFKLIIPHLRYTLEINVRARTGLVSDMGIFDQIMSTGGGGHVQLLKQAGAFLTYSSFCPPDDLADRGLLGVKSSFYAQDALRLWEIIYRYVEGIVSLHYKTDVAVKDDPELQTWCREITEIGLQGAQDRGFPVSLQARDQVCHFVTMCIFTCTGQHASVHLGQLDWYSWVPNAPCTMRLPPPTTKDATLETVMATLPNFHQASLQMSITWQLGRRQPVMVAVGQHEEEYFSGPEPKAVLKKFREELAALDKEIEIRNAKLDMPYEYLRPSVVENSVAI

As a reminder, the IC50 is the midpoint of a concentration-inhibition curve. A higher IC50 goes with weaker potency. For the compound `COCCOCCNc1oc(-c2cc(Cl)cc(Cl)c2F)nc1C#N` [Compound 35, 2-(3,5-Dichloro-2-fluorophenyl)-5-((2-(2-methoxyethoxy)ethyl)amino)oxazole-4-carbonitrile], the IC50 came out at 3000 nM and the Emax came to 100%. The matching figures for `CN(C)CCCCC(=O)N(C)c1oc(-c2cc(Cl)cc(Cl)c2Cl)nc1C#N` [Compound 62, N-(4-Cyano-2-(2,3,5-trichlorophenyl)oxazol-5-yl)-5-(dimethylamino)-N-methylpentanamide hydrochloride]: 8300 nM and 100%. On the same counts, the results for `N#Cc1nc(-c2cc(Cl)cc(Cl)c2Cl)oc1NCCOCCOc1ccnnc1` [Compound 103, 5-((2-(2-(Pyridazin-4-yloxy)ethoxy)ethyl)amino)-2-(2,3,5-trichlorophenyl)oxazole-4-carbonitrile] are 4600 nM and 73%.

On to `Cc1cc(OCCOCCNc2oc(-c3cc(Cl)cc(Cl)c3Cl)nc2C#N)cc(C)n1` [Compound 83, 5-((2-(2-((2,6-Dimethylpyridin-4-yl)oxy)ethoxy)ethyl)amino)-2-(2,3,5-trichlorophenyl)oxazole-4-carbonitrile], for which the midpoint of inhibition, the IC50, lay at 180 nM and the Emax is 61%. As to `N#Cc1nc(-c2cc(Cl)cc(Cl)c2Cl)oc1NCC#CCOCc1ccc(CCN2CCOCC2)cc1` [Compound 86], the Emax was determined as 100%.

As to `N#Cc1nc(-c2cc(Cl)cc(Cl)c2Cl)oc1NCCOCCN1CCC(F)CC1` [Compound 80, 5-((2-(2-(4-Fluoropiperidin-1-yl)ethoxy)ethyl)amino)-2-(2,3,5-trichlorophenyl)oxazole-4-carbonitrile], the 50% inhibitory concentration (IC50) is over 20000 nM. Still for that read-out and setting: then `CN(CCOCCNc1oc(-c2cc(Cl)cc(Cl)c2Cl)nc1C#N)c1ccncc1` [Compound 90, 5-((2-(2-(Methyl(pyridin-4-yl)amino)ethoxy)ethyl)amino)-2-(2,3,5-trichlorophenyl)oxazole-4-carbonitrile], with over 20000 nM; and `[2H]C([2H])([2H])N(C(=O)OCCCN(C)C)c1oc(-c2cc(Cl)cc(Cl)c2Cl)nc1C#N` [Compound 54, hydrochloride], with over 20000 nM. In the case of `CNc1oc(-c2cc(Cl)cc(C)c2Cl)nc1C#N` [Compound 6, 2-(2,5-Dichloro-3-methylphenyl)-5-(methylamino)oxazole-4-carbonitrile], the IC50 amounted to 180 nM and the Emax turned out to be 99%. Consider `N#Cc1nc(-c2cc(Cl)cc(Cl)c2Cl)oc1NCC#CCOCc1ccc(OCCN2CCOCC2)cc1` [Compound 87], for which the Emax was found to be 94%.

`COCCOC(=O)N(C)c1oc(-c2cc(Cl)cc(Cl)c2Cl)nc1C#N` [Compound 55, 2-Methoxyethyl (4-cyano-2-(2,3,5-trichlorophenyl)oxazol-5-yl)(methyl)carbamate] showed an IC50 of over 20000 nM. As to `COCCOCCNc1oc(-c2cc(Cl)cc(C)c2Cl)nc1C#N` [Compound 36, 2-(2,5-Dichloro-3-methylphenyl)-5-((2-(2-methoxyethoxy)ethyl)amino)oxazole-4-carbonitrile], half-maximal inhibition (IC50) required 1100 nM and the Emax is 100%.

As to `Cc1cc(Cl)cc(-c2nc(C#N)c(NCCCCCO)o2)c1Cl` [Compound 26, 2-(2,5-Dichloro-3-methylphenyl)-5-((5-hydroxypentyl)amino)oxazole-4-carbonitrile], the IC50 was 800 nM and the Emax came to 100%. Regarding `N#Cc1nc(-c2cc(Cl)cc(Cl)c2F)oc1NCCCCCO` [Compound 25], the Emax was 38%. For the compound `N#Cc1nc(-c2cc(Cl)cc(Cl)c2OC(F)F)oc1NCCCCO` [Compound 18, 2-(3,5-Dichloro-2-(difluoromethoxy)phenyl)-5-((4-hydroxybutyl)amino)oxazole-4-carbonitrile], the 50% inhibitory concentration (IC50) worked out at 2000 nM and the Emax was 90%. As to `N#Cc1nc(-c2cc(Cl)cc(Cl)c2Cl)oc1NCC#CCOCc1ccc(C(=O)O)cc1` [Compound 89, 4-(((4-((4-Cyano-2-(2,3,5-trichlorophenyl)oxazol-5-yl)amino)but-2-yn-1-yl)oxy)methyl)benzoic acid], half-maximal inhibition (IC50) required 1300 nM and the Emax was 100%. As for `N#Cc1nc(-c2cc(Cl)cc(C(F)(F)F)c2Cl)oc1NCCCCCO` [Compound 27, 2-(2,5-Dichloro-3-(trifluoromethyl)phenyl)-5-((5-hydroxypentyl)amino)oxazole-4-carbonitrile], the midpoint of inhibition, the IC50, lay at 550 nM and the Emax came to 70%.

For the compound `Cc1c(Cl)cc(Cl)cc1-c1nc(C#N)c(NCCCCO)o1` [Compound 19, 2-(3,5-Dichloro-2-methylpheny1)-5-((4-hydroxybutyl)amino)oxazole-4-carbonitrile], inhibition was half-maximal at 460 nM (IC50) and the Emax worked out at 68%.

For the compound `N#Cc1nc(-c2cc(Cl)cc(Cl)c2Cl)oc1NCCOCCOc1ccncc1` [Compound 97, 5-((2-(2-(Pyridin-4-yloxy)ethoxy)ethyl)amino)-2-(2,3,5-trichlorophenyl)oxazole-4-carbonitrile], the IC50 was 110 nM and the Emax worked out at 68%. For the compound `Cc1cc(Cl)c(Cl)c(-c2nc(C#N)c(NCCCCO)o2)c1` [Compound 21, 2-(2,3-Dichloro-5-methylphenyl)-5-((4-hydroxybutyl)amino)oxazole-4-carbonitrile], the midpoint of inhibition, the IC50, lay at 8000 nM and the Emax stood at 86%. Turning to `CNc1oc(-c2c(Cl)ccc(Cl)c2Cl)nc1C#N`, the IC50 was over 20000 nM and the Emax was 32%. The matching figures for `N#Cc1nc(-c2cc(Cl)cc(Cl)c2Cl)oc1NCCOCCOc1cccnn1` [Compound 79, 5-((2-(2-(Pyridazin-3-yloxy)ethoxy)ethyl)amino)-2-(2,3,5-trichlorophenyl)oxazole-4-carbonitrile]: over 20000 nM and 17%. `CN(C)CCOC(=O)Nc1oc(-c2cc(Cl)cc(Cl)c2Cl)nc1C#N` [Compound 59, 2-(Dimethylamino)ethyl (4-cyano-2-(2,3,5-trichlorophenyl)oxazol-5-yl)carbamate hydrochloride] returned an IC50 of over 20000 nM. For `N#Cc1nc(-c2cc(Cl)cc(Cl)c2Cl)oc1NCCOCCOc1ccncc1F` [Compound 84, 5-((2-(2-((3-Fluoropyridin-4-yl)oxy)ethoxy)ethyl)amino)-2-(2,3,5-trichlorophenyl)oxazole-4-carbonitrile], it took 490 nM to reach half-maximal inhibition (IC50) and the Emax was determined as 68%. On to `CNc1oc(-c2ccc(Cl)c(Cl)c2Cl)nc1C#N`, for which the IC50 is over 20000 nM and the Emax is 49%. As to `COCCOCCNc1oc(-c2cc(Cl)cc(Cl)c2OC(F)F)nc1C#N` [Compound 33, 2-(3,5-Dichloro-2-(difluoromethoxy)phenyl)-5-((2-(2-methoxyethoxy)ethyl)amino)oxazole-4-carbonitrile], the IC50 is 650 nM and the Emax came to 100%. `CN(C)CCCCC(=O)Nc1oc(-c2cc(Cl)cc(Cl)c2Cl)nc1C#N` [Compound 64, N-(4-Cyano-2-(2,3,5-trichlorophenyl)oxazol-5-yl)-5-(dimethylamino)pentanamide hydrochloride] returned a 50% inhibitory concentration (IC50) of over 20000 nM. On to `C/C=C/CNc1oc(-c2cc(Cl)cc(Cl)c2Cl)nc1C#N` [Compound 15, (E)-5-(But-2-en-1-ylamino)-2-(2,3,5-trichlorophenyl)oxazole-4-carbonitrile], for which the IC50 amounted to 170 nM and the Emax turned out to be 92%. Consider `N#Cc1nc(-c2cc(Cl)cc(C(F)(F)F)c2Cl)oc1NCCCCO` [Compound 20, 2-(2,5-Dichloro-3-(trifluoromethyl)phenyl)-5-((4-hydroxybutyl)amino)oxazole-4-carbonitrile], for which 1500 nM corresponded to half-maximal inhibition (IC50) and the Emax was 97%. With `CN(C)CCCCCC(=O)Nc1oc(-c2cc(Cl)cc(Cl)c2Cl)nc1C#N` [Compound 63, N-(4-cyano-2-(2,3,5-trichlorophenyl)oxazol-5-yl)-6-(dimethylamino) hexanamide hydrochloride], the IC50 was over 20000 nM. Consider `CNc1oc(-c2cc(C)cc(Cl)c2Cl)nc1C#N` [Compound 10, 2-(2,3-Dichloro-5-methylphenyl)-5-(methylamino)oxazole-4-carbonitrile], for which the IC50 came to 380 nM and the Emax stood at 80%.

In the case of `COc1cc(OCCOCCNc2oc(-c3cc(Cl)cc(Cl)c3Cl)nc2C#N)ccn1` [Compound 101, 5-((2-(2-((2-Methoxypyridin-4-yl)oxy)ethoxy)ethyl)amino)-2-(2,3,5-trichlorophenyl)oxazole-4-carbonitrile], the IC50 stood at 72 nM and the Emax worked out at 62%.

With `COc1cnccc1OCCOCCNc1oc(-c2cc(Cl)cc(Cl)c2Cl)nc1C#N` [Compound 99, 5-((2-(2-((3-Methoxypyridin-4-yl)oxy)ethoxy)ethyl)amino)-2-(2,3,5-trichlorophenyl)oxazole-4-carbonitrile], the IC50 is 1700 nM and the Emax turned out to be 66%. Take `CNc1oc(-c2cc(Cl)cc(Cl)c2C)nc1C#N` [Compound 2, 2-(3,5-Dichloro-2-methylphenyl)-5-(methylamino)oxazole-4-carbonitrile]: inhibition was half-maximal at 63 nM (IC50) and the Emax worked out at 85%. Consider `CCOCCOCCNc1oc(-c2cc(Cl)cc(Cl)c2Cl)nc1C#N` [Compound 69, 5-((2-(2-Ethoxyethoxy)ethyl)amino)-2-(2,3,5-trichlorophenyl)oxazole-4-carbonitrile], for which the IC50 came to 330 nM and the Emax came out at 100%. On to `Cc1c(Cl)cc(Cl)cc1-c1nc(C#N)c(NCCOCCO)o1` [Compound 30], for which the Emax was determined as 100%. In turn, `N#Cc1nc(-c2cc(Cl)cc(Cl)c2Cl)oc1NCCOCCN1CC(F)(F)C1` [Compound 72, 5-((2-(2-(3,3-Difluoroazetidin-1-yl)ethoxy)ethyl)amino)-2-(2,3,5-trichlorophenyl)oxazole-4-carbonitrile] yielded an IC50 of over 20000 nM.

As for `N#Cc1nc(-c2cc(Cl)cc(Cl)c2Cl)oc1NCCOCCNCC(F)(F)F` [Compound 94, 2-(2,3,5-Trichlorophenyl)-5-((2-(2-((2,2,2-trifluoroethyl)amino)ethoxy)ethyl)amino)oxazole-4-carbonitrile], the IC50 is 300 nM and the Emax stood at 77%.

Source of the values: patent US20240336642A1 (The General Hospital Corporation, priority 2021, published 2024).
